Results reported in patent publication US20200157048A1, “(2E,4E)-5-PHENYL-PENTA-2,4-DIEN-1-ONE DERIVATIVE” (BIOWAY., INC, priority 2018, published 2020).

Legend:
[1] = system: 3T3-L1 preadipocytes; assay: Oil-Red-O staining of lipid droplets after induction of 3T3-L1 preadipocyte differentiation; format: cell-based, mouse; conditions: 50 μM test material; differentiated 3T3-L1 cells
Protocol: (§1) 3T3-L1 mouse preadipocytes (American Type Culture Collection) were incubated in an incubator set to 37° C., humidity of 95% and 5% CO2. The 3T3-L1 mouse preadipocytes were sufficiently proliferated using a proliferation medium (Dulbecco's modified Eagle's medium (DMEM) supplemented with 5% fetal bovine serum (FBS), 100 U/mL of penicillin and 100 μg/mL of streptomycin), and treated with a differentiation medium (DMEM containing 5% FBS, 0.5 mM 3-isobutyl-1-methylxanthine, […] dexamethasone and 10 μg/mL insulin) for 4 days. Afterward, the 3T3-L1 mouse preadipocytes were treated with an induction medium (DMEM containing 5% FBS and 10 μg/mL insulin, DMEM containing 5% FBS) for 2 days, and to maintain differentiated adipocytes until the end of the experiment, the induction medium was replaced every day. The 3T3-L1 cells were used in Experimental Examples 1, 2, and 3.
To confirm capacity of inhibiting the formation of lipid droplets of a test material, 3T3-L1 cells, which are preadipocytes, were induced to differentiate into adipocytes, and then the lipid droplets were stained through the Oil-Red-O staining.
First, after preadipocytes, 3T3-L1 cells, were incubated in a dish having a diameter of 10 cm^2, excluding G1 and G2, the cells were treated with 50 μM of a test material previously diluted with a culture medium (refer to Table 2).
Next, for staining, first, the cell supernatant present in a well was removed, and fixed with 4% paraformaldehyde. Afterward, after adding a 100% 1,2-propanediol dehydration solution, the resulting sample was incubated for 5 minutes, and then an Oil-Red-O stain solution was added for staining of lipid droplets. After the Oil-Red-O staining, an 85% 1,2-propanediol stain differential solution was added for washing.
Finally, after filling a well with D.W. without drying the stained well, the formation of lipid droplets was confirmed by observation using a microscope.
After confirming the formation of lipid droplets using Oil-Red-O staining, a part stained with isopropanol was dissolved, and the degree of staining lipid droplets was confirmed by absorbance at 540 nm. The increase/decrease rate, compared to the normal control, was evaluated using an optical density (OD) value.

[2] = system: 3T3-L1 preadipocytes; assay: Triglyceride content after induction of 3T3-L1 preadipocyte differentiation; format: cell-based, mouse; conditions: differentiated 3T3-L1 cells; predetermined concentration of test material
Protocol: as §1
(§2) Preadipocytes, 3T3-L1 cells, were incubated in a dish having a diameter of 10 cm^2 by the same method as described in Experimental Example 1, and then treated with a predetermined concentration of a test material diluted with a culture medium. After treatment, a triglyceride content was confirmed using an assay kit.

[3] = system: 3T3-L1 preadipocytes; assay: Glycerol content after induction of 3T3-L1 preadipocyte differentiation; format: cell-based, mouse; conditions: differentiated 3T3-L1 cells; predetermined concentration of test material
Protocol: as §1
as §2, with “glycerol” for “triglyceride”

[4] = molecular target: T1, SIRT1 (Homo sapiens, UniProt Q96EB6); assay: SIRT1 direct fluorescent assay; format: biochemical
T1 construct: purchased Cayman (Ann Arbor, Mich., USA)
T1 sequence (Q96EB6 1-747): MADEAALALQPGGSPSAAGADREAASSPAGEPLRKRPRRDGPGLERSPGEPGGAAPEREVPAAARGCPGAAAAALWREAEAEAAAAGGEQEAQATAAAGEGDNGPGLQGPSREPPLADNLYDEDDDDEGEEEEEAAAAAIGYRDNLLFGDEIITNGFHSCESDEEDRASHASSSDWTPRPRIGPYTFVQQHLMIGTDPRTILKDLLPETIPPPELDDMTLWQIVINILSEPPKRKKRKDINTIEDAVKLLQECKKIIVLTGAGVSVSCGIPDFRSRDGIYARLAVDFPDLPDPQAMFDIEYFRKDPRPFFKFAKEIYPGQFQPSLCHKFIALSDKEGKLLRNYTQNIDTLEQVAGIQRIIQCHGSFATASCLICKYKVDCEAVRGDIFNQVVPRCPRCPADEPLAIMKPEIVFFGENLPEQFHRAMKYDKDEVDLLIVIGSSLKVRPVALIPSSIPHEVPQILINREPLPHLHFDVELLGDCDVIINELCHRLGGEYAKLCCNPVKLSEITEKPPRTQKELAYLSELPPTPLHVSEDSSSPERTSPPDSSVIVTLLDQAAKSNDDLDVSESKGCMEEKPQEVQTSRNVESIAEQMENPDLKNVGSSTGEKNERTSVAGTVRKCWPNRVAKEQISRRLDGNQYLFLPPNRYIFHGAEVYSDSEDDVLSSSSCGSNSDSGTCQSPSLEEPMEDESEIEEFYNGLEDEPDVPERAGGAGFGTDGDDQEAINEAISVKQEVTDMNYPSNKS
Protocol: All materials were provided from a Sirt1 direct fluorescent screening assay kit (Cayman, Ann Arbor, Mich., USA).
SIRT1, p53 conjugated aminomethyl coumarin (AMC) protein, and 3 mM NAD^+ were added to a diluted analysis buffer (50 mM Tris-HCl, pH 8.0, 137 mM NaCl, 2.7 mM KCl, and 1 mM MgCl2).
25 μL of the analysis buffer, 5 μL of diluted SIRT1, and 5 μL of a solvent were added to each of three 100% initial activity wells of a 96-well plate.
30 μL of the analysis buffer and 5 μL of a solvent were added to each of three background wells of the 96-well plate.
25 μL of the analysis buffer, 5 μL of diluted SIRT1, and 5 μL of a diluted test compound were added to each of three sample wells of the 96-well plate. The final DMSO concentration was less than 2%.
15 μL of a 3 mM NAD^+-containing substrate solution was added to all wells to begin the reaction. The 96-well plate was covered with a plate cover, and then incubated in a shaker at room temperature (25 to 30° C.) for 45 minutes.
A stop/developing solution was prepared. To prepare the final 5 mL solution, 200 μL of nicotinamide (NAM, Sigma-Aldrich) was added to a color developing powder weighing 30 mg, 4.8 mL of a diluted analysis buffer was added thereto, and the resulting mixture was stirred until the powder became a solution.
The plate cover was removed, and 50 μL of the stop/developing solution was added to each well.
The 96-well plate was covered with a plate cover, and incubated at room temperature (25 to 30° C.) for 30 minutes.
The plate cover was removed, and the plate was read using Cytation 5 at an excitation wavelength of 360 nm and an emission wavelength of 450 nm.
The mean fluorescence of each sample was measured.
The fluorescence of the background wells was subtracted from the fluorescence of the 100% initial activity wells and sample wells.
To determine the percent of each sample, each sample value was subtracted from the 100% initial activity value, and the resulting value was divided by the 100% initial activity value and then multiplied by 100 and added to 100, which was expressed as a percentage.

Structure (SMILES) | amount of stained lipid droplets (Oil-Red-O dissolved in isopropanol, absorbance at 540 nm, FIG. 2) [1] | triglyceride content (FIG. 3) [2] | glycerol content (FIG. 4) [3] | increase of SIRT1 activity (FIG. 18) ([4]; 2 μM) | increase of SIRT1 activity (FIG. 18) ([4]; 10 μM) [%]
CSc1ccc(/C=C/C=C/C(=O)N2CCCC(O)C2)cc1 (centres unmarked) [R-7, (2E,4E)-1-(3-hydroxypiperidine-1-yl)-5-(4-(methylthio)phenyl)penta-2,4-dien-1-one] | less than that of the test groups treated with R-3 and 4 | lower than that of the test group treated with R-3 | lower than that of the test group treated with R-3 | – | –
CSc1ccc(/C=C/C=C/C(=O)N2CCC(O)CC2)cc1 [R-8, (2E,4E)-1-(4-hydroxypiperidine-1-yl)-5-(4-(methylthio)phenyl)penta-2,4-dien-1-one] | less than that of the test groups treated with R-3 and 4 | lower than that of the test group treated with R-3 | lower than that of the test group treated with R-3 | – | –
COC1CCN(C(=O)/C=C/C=C/c2ccc(SC)cc2)CC1 [R-9, (2E,4E)-1-(4-methoxypiperidine-1-yl)-5-(4-(methylthio)phenyl)penta-2,4-dien-1-one] | less than that of the test groups treated with R-3 and 4 | lower than that of the test group treated with R-3 | lower than that of the test group treated with R-3 | – | –
CSc1ccc(/C=C/C=C/C(=O)N2CCC(NC(C)=O)CC2)cc1 [R-11, N-(1-((2E,4E)-5-(4-(methylthio)phenyl)penta-2,4-dienoyl)piperidine-4-yl)acetamide] | less than that of the test groups treated with R-3 and 4 | lower than that of the test group treated with R-3 | lower than that of the test group treated with R-3 | – | –
COc1ccc(/C=C/C=C/C(=O)N2CCN(C)CC2)cc1 [R-15, (2E,4E)-5-(4-methoxyphenyl)-1-(4-methylpiperazine-1-yl)penta-2,4-dien-1-one] | less than that of the test groups treated with R-3 and 4 | lower than that of the test group treated with R-3 | lower than that of the test group treated with R-3 | – | –
CSc1ccc(/C=C/C=C/C(=O)N2CCN(C(C)=O)CC2)cc1 [R-17, (2E,4E)-1-(4-acetylpiperazine-1-yl)-5-(4-(methylthio)phenyl)penta-2,4-dien-1-one] | less than that of the test groups treated with R-3 and 4 | lower than that of the test group treated with R-3 | lower than that of the test group treated with R-3 | – | –
CCOC(=O)N1CCN(C(=O)/C=C/C=C/c2cccc(OC)c2)CC1 [R-22, Ethyl ((2E,4E)-5-(3-methoxyphenyl)penta-2,4-dienoyl)piperazine-1-carboxylate] | – | – | – | about 5% | –
COc1ccc(/C=C/C=C/C(=O)N2CCN(C(=O)OC(C)C)CC2)cc1 [R-26, Isopropyl 4-((2E,4E)-5-(4-methoxyphenyl)penta-2,4-dienoyl)piperazine-1-carboxylate] | – | – | – | – | ≥ 10
CSc1ccc(/C=C/C=C/C(=O)N2CCN(C(=O)OC(C)(C)C)CC2)cc1 [R-28, Tert-butyl 4-((2E,4E)-5-(4-(methylthio)phenyl)penta-2,4-dienoyl)piperazine-1-carboxylate] | less than that of the test groups treated with R-3 and 4 | lower than that of the test group treated with R-3 | lower than that of the test group treated with R-3 | – | –
COc1ccc(/C=C/C=C/C(=O)N2CCOCC2)cc1 [R-29, (2E,4E)-5-(4-methoxyphenyl)-1-morpholinopenta-2,4-dien-1-one] | less than that of the test groups treated with R-3 and 4 | lower than that of the test group treated with R-3 | lower than that of the test group treated with R-3 | – | –
CSc1ccc(/C=C/C=C/C(=O)N2CCOCC2)cc1 [R-30, (2E,4E)-5-(4-(methylthio)phenyl)-1-morpholinopenta-2,4-dien-1-one] | less than that of the test groups treated with R-3 and 4 | lower than that of the test group treated with R-3 | lower than that of the test group treated with R-3 | – | –
